Assay [1] has as its system PIK3CD (mouse). The experiment in a line: Assessment of Stimulus Induced B Cell Proliferation. As to conditions: b cells.
In assay [2] the target is PIK3CD (Human) (UniProt O00329). The experiment in a line: Assessment of Stimulus Induced TCE Cell Proliferation. As to conditions: t cells.
The target is the same in assay [3]. The experiment in a line: Evaluation of PIK3CD inhibitors on Elastase Release in Human PMN Cells.
For assay [4] the target is unchanged. As to the kind of experiment: Evaluation of PIK3CD inhibitors on Neutrophil Migration. As to conditions: pmn.
Assay [5] has the same target. The experiment in a line: Evaluation of PIK3CD inhibitors on Basophil Function by Histamine Release Assay. The note with it: basophils.
The target in a further assay is PIK3CG (UniProt P48736). As to the kind of experiment: Inhibition of PIK3CG Kinase Activity. As to conditions: concentration not given here.
Assay [6] addresses PIK3CD (Human) (UniProt O00329). The experiment in a line: Assessment of Cell Proliferation in KU812 Cells.
For assay [7] the target is unchanged. As to the kind of experiment: Assessment of RWLeu4 Cell Proliferation.
For assay [8], the system named is PIK3CD (mouse). The experiment in a line: Evaluation of PIK3CD inhibitors on Osteoclast Function. The note with it: bone marrow, dose or concentration not given here.
Another assay concerns the target PIK3CB (UniProt P42338). As to the kind of experiment: Inhibition of PIK3CB Kinase Activity. As to conditions: for inhibition: concentration not given here.
A further assay concerns the target PIK3CA (UniProt P42336). The experiment in a line: Inhibition of PIK3CA Kinase Activity. As to conditions: concentration not given here.
Another assay deals with PIK3CD (UniProt O00329). The experiment in a line: Inhibition of PIK3CD Kinase Activity.

Here are results for six compounds from the Kinase Knowledgebase extract (Sharma et al. 2016).

Chain of PIK3CB (P42338 whole entry, looked up): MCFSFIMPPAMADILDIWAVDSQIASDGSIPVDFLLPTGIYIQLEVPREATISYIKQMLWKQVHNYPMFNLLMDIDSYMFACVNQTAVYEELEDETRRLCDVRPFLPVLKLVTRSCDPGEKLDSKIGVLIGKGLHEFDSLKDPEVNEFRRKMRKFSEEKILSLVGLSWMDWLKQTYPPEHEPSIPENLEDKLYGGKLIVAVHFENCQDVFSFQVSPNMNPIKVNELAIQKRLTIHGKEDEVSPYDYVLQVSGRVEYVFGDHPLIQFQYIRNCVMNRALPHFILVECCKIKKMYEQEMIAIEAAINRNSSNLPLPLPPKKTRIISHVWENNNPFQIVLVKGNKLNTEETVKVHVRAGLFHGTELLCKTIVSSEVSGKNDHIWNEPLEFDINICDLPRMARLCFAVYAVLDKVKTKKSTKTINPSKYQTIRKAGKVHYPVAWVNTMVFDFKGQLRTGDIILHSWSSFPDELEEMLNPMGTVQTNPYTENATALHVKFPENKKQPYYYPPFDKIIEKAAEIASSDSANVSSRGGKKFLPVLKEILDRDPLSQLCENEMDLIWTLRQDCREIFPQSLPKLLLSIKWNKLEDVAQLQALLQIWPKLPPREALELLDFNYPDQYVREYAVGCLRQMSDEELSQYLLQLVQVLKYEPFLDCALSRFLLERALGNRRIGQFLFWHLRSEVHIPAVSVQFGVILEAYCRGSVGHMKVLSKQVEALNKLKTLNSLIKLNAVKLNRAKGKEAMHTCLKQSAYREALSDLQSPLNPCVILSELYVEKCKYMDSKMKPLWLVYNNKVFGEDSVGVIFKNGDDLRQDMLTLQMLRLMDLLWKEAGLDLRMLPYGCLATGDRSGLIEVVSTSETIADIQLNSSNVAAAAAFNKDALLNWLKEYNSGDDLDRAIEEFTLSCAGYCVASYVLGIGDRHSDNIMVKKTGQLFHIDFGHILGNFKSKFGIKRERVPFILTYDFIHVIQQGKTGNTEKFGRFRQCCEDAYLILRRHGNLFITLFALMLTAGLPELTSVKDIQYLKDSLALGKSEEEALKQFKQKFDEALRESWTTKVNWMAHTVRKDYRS
Chain of PIK3CD (Human) (O00329 whole entry, looked up): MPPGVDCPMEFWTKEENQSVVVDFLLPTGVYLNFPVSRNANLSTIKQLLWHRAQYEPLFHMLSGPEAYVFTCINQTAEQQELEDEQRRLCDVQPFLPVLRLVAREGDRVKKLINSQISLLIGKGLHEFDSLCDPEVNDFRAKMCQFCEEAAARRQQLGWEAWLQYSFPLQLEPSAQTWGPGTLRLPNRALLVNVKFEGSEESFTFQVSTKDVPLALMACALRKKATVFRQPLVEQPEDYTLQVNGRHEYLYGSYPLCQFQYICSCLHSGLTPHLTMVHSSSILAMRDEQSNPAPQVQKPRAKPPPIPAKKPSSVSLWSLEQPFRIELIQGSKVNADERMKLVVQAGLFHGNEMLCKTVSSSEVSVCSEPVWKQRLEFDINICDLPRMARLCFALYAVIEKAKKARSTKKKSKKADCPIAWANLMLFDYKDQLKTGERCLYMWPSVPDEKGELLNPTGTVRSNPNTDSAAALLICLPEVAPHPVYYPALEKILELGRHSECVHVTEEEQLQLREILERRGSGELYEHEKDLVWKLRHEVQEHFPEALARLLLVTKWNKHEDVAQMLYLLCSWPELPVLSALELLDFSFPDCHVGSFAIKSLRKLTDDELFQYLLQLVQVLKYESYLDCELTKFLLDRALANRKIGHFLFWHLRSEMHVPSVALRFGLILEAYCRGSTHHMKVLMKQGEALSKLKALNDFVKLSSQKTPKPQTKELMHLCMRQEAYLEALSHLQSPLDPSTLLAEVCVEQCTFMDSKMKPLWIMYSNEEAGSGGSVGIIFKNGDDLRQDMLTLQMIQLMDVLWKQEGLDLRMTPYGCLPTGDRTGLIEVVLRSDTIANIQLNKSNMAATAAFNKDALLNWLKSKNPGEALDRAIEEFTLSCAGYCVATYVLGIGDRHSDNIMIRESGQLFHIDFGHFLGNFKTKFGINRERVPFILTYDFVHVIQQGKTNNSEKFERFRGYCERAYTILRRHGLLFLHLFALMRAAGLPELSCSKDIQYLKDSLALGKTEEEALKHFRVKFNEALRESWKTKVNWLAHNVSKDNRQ
Chain of PIK3CG (P48736 whole entry, looked up): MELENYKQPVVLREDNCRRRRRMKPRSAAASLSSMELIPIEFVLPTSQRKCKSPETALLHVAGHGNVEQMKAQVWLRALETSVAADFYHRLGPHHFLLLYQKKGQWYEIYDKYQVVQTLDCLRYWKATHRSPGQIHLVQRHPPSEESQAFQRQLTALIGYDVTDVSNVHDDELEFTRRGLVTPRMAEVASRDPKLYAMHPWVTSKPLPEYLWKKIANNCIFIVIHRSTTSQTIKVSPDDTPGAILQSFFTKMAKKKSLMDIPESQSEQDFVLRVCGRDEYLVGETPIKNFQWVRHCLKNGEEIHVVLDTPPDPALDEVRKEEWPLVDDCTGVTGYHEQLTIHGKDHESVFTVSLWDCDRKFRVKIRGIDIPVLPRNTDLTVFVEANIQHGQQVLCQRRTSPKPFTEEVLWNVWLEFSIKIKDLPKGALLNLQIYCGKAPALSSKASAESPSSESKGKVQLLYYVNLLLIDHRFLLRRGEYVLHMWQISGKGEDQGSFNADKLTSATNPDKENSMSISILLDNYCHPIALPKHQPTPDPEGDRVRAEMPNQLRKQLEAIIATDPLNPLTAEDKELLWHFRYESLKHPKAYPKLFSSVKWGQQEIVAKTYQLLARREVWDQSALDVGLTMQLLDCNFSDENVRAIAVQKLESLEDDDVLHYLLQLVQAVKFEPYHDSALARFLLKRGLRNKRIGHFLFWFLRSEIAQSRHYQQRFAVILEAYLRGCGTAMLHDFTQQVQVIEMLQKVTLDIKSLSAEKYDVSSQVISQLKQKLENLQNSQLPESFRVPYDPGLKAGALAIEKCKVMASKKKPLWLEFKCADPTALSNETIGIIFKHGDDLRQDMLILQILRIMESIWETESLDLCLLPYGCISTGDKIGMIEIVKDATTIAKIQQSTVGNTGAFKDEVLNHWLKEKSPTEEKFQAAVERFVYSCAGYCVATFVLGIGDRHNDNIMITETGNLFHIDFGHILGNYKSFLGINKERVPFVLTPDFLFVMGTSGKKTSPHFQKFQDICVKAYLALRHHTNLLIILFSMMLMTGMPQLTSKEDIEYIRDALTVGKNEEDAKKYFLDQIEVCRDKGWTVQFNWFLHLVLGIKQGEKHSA
Chain of PIK3CA (P42336 whole entry, looked up): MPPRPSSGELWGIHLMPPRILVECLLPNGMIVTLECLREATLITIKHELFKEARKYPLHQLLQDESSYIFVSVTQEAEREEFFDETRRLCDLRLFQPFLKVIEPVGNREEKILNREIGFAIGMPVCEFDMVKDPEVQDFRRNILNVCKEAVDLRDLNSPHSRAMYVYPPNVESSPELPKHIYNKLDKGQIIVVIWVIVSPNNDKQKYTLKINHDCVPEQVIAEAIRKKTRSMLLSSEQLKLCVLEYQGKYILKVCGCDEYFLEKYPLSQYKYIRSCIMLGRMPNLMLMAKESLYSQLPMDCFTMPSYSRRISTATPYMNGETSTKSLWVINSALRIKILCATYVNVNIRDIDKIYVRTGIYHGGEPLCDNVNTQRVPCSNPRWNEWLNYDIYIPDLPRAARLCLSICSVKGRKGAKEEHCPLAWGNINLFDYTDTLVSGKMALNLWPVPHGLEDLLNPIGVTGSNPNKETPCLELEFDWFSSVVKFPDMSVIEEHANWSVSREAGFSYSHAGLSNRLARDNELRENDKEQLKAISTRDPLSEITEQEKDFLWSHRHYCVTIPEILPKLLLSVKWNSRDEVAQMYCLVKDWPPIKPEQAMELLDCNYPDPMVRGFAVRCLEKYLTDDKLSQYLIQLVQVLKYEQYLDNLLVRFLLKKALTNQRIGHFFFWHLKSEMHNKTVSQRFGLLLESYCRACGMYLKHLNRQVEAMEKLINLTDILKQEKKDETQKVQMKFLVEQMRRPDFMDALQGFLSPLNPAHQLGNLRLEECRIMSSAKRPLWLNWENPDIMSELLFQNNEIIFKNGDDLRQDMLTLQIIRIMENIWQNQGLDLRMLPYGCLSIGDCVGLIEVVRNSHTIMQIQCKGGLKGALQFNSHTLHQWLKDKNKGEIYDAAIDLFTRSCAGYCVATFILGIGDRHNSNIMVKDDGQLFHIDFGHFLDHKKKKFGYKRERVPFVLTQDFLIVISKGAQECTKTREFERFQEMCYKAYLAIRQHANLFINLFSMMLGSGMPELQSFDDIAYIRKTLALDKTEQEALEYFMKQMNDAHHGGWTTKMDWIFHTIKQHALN
Chain of PIK3CD (O00329 whole entry, looked up): as the sequence (O00329 whole entry, looked up) above

Usually EC50 stands for the concentration that produces a half-maximal response. A high value points to a less potent agent. Take `Cc1cccc2nc(CSc3ncnc4[nH]cnc34)n(-c3ccccc3Cl)c(=O)c12`: the EC50 in the assay on PIK3CD (mouse) [1] was 0.3 µM; on PIK3CD (Human) [2] it was 3.5 µM; on PIK3CD (Human) [3] it was 0.2 µM; on PIK3CD (Human) [4] it was 0.3 µM; at PIK3CD (Human) [5], 0.025 µM.
The inhibition is the percentage by which the read-out fell short of the control. Low values mean a response near the control, high ones a response far below the control. Regarding `O=c1c2c(F)cccc2nc(CSc2ncnc3[nH]cnc23)n1-c1ccccc1Cl`, the EC50 with PIK3CD (mouse) [1] was determined as 1.2 µM; at PIK3CD (Human) [2] it was 1.8 µM; on PIK3CD (Human) [3] it was 1.3 µM; on PIK3CD (Human) [4], 2 µM. Also, the inhibition against PIK3CG is 83%.
Turning to `O=c1c2ccccc2nc(CSc2ncnc3[nH]cnc23)n1-c1ccccc1Cl`, the EC50 is 0.9 µM with PIK3CD (mouse) [1]; 5.5 µM on PIK3CD (Human) [2]; 2.2 µM at PIK3CD (Human) [3]; 1 to 5 µM on PIK3CD (Human) [4]; 2 µM on PIK3CD (Human) [6]; 2 µM on PIK3CD (Human) [7]. Moreover, in the assay with PIK3CD (mouse) [8], the inhibition is 99%.
For orientation: IC50 means the concentration needed to halve the response being measured. Consider `Nc1ncnc2c1ncn2Cc1nc2cccc(F)c2c(=O)n1-c1ccccc1Cl`, for which the EC50 in the assay with PIK3CD (mouse) [1] worked out at 0.7 µM; at PIK3CD (Human) [2], 3.9 µM; at PIK3CD (Human) [3], 4.3 µM. The IC50 against PIK3CB is 46 µM. Also, the inhibition against PIK3CB was 18%; against PIK3CG, 9%.
In the assay on PIK3CD (mouse) [1], `O=c1cc(N2CCOCC2)oc2c(-c3ccccc3)cccc12` came in with an EC50 of 0.9 µM. For the same compound, at PIK3CD (Human) [5] (concentration not given here), the inhibition was found to be 100%.
Take `O=c1c2cccc(C(F)(F)F)c2nc(CSc2ncnc3[nH]cnc23)n1-c1ccccc1Cl`: the inhibition on PIK3CA turned out to be 12%; against PIK3CB, 7%. For the same compound, the IC50 against PIK3CD came to 4.2 µM.
